Results: PMC8279414, “Discovery and Synthesis of a Pyrimidine-Based Aurora Kinase Inhibitor to Reduce Levels of MYC Oncoproteins” (Journal of Medicinal Chemistry, 2021)
Read-outs that look alike come from different tables or passages of the source. Blank lines part the entries; values can stand above or below the compound they belong to.

Legend:
[1] = test system: MYCN in SK-N-BE(2); assay: Western blot analysis of MYCN protein level in SK-N-BE(2) cells; type: cell-based; details: for SK-N-BE(2) MYCN, relative protein level: 1.0 μM of compound, mean ± SD, triplicate
Experimental: (§1) Cancer cells were treated with each of the compounds at different compound concentrations. […] Each lysate was separated by sodium dodecyl sulfate polyacrylamide gel electrophoresis (SDS-PAGE), transferred to polyvinylidene fluoride (PVDF, Millipore, USA) membrane, and blotted with antibodies. […] After the blotting (0.2% casein, 1% BSA, or 5% nonfat milk), membranes were washed with blotting buffer (0.2% casein in 1× PBS or 1× TBST), and corresponding alkaline phosphatase (AP)- or horseradish peroxidase (HRP)-conjugated secondary antibodies (Sigma-Aldrich) were added. The blots were developed by chemiluminescence (PerkinElmer, USA).

[2] = test system: high-MYC expressing small-cell lung cancer (SCLC) cell lines; assay: Cell proliferation inhibition assay, cell lines not named singly; type: cell-based; details: high-MYC expressing / cMYC-amplified SCLC cell lines, 72 h
Description: (§2) SCLC is an aggressive malignancy that accounts for around 10–15% of all lung cancers, for which no targeted therapy is currently available.[29],[30] SCLC cells are characterized by rapid proliferation, universal RB1 and TP53 inactivation, and high rates of MYC-family amplification.[31] A recent study of MYC amplification in 77 formalin-fixed paraffin-embedded SCLC tumor samples using chromogenic in situ hybridization identified amplification of the MYC-family oncogenes in 20% of the tumors.[32],[33] Thus, we evaluated the growth-inhibitory effects of 13 on nine different SCLC cell lines: five with cMYC amplification, one with MYCN amplification, one with MYCL amplification, and two with no MYC-family amplification.
(§3) The efficacy of the compounds as inhibitors of cancer cell proliferation was assessed using PrestoBlue Cell Viability Reagent (ThermoFisher Scientific, USA). Cells were seeded at a density of 5000–10,000 cells per well in 96-well plates. After 24 h, cells were treated with each compound at various concentrations (0–10 μM). IC50 values were computed based on a triplicate, eight-point titration. After 72 h of drug treatment, 10 μL of PrestoBlue Cell Viability Reagent was added to each well, and fluorescence signals were collected using a Wallac Vector 1420 multilabel counter (PerkinElmer, USA).

[3] = Body weight of xenograft mice during treatment; type: in vivo
Experimental: (§4) Male athymic nu/nu nude mice (BioLASCO, Taiwan) 6 weeks old were housed in sterile cages maintained under 12 h light/dark cycles with controlled temperature and humidity. Mice were inoculated subcutaneously with 1 × 10^6 NCI–H446 cells (ATCC@ HTB-171) resuspended in saline mixed with 50% Matrigel matrix (Corning, USA). The sizes of the xenografted tumors were measured by a digital caliper (GMC-190; Goldsun Electronics Co.) and calculated using the formula: tumor volume (mm^3) = length × (width)2/2. Body weight and tumor size were measured at least twice a week. When the xenograft tumor reached ≥200 mm^3 in size, mice were intravenous or orally administered with the vehicle (5% dimethylacetamide/95% PEG400) or the compounds on a 5-on-2-off dosing regimen for 2–4 weeks. Tumor growth was analyzed for a statistically significant difference using ANOVA, followed by the Student–Newman–Keuls test. P < 0.05 was considered a significant difference between groups.

[4] = test system: cMYC in NCI-H82; assay: Western blot analysis of cMYC protein level in NCI-H82 cells; type: cell-based; details: for NCI-H82 cMYC, relative protein level: 1.0 μM of compound, mean ± SD, triplicate
Experimental: as §1

[5] = test system: NCI-H211; assay: Cell proliferation inhibition assay (PrestoBlue); type: cell-based; details: Homo sapiens, NCI-H211, 72 h; read-out: Compound 13 IC50 (half-proliferation inhibition concentration)
Description: as §2, §3

[6] = test system: NCI-H82; assay: Cell proliferation inhibition assay (PrestoBlue); type: cell-based; details: Homo sapiens, NCI-H82, 72 h; read-out: Compound 13 IC50 (half-proliferation inhibition concentration)
Description: as §2, §3

[7] = test system: NCI-H146; assay: Cell proliferation inhibition assay (PrestoBlue); type: cell-based; details: NCI-H146 (MYC-unamplified), read-out: Compound 13 IC50 (half-proliferation inhibition concentration)
Description: as §2, §3

[8] = test system: NCI-H524; assay: Cell proliferation inhibition assay (PrestoBlue); type: cell-based; details: Homo sapiens, NCI-H524, 72 h; read-out: Compound 13 IC50 (half-proliferation inhibition concentration)
Description: as §2, §3

[9] = test system: NCI-H2171; assay: Cell proliferation inhibition assay (PrestoBlue); type: cell-based; details: Homo sapiens, NCI-H2171, 72 h; read-out: Compound 13 IC50 (half-proliferation inhibition concentration)
Description: as §2, §3

[10] = test system: NCI-H446; assay: Cell proliferation inhibition assay (PrestoBlue); type: cell-based; details: Homo sapiens, NCI-H446, 72 h; read-out: Compound 13 IC50 (half-proliferation inhibition concentration)
Description: as §2, §3

[11] = test system: NCI-H446 xenograft tumors; assay: In vivo xenograft tumor growth inhibition; set-up: species or system mice; details: for anticancer activity in NCI-H446 xenograft tumor model: oral administration, 5-on-2-off regimen
Experimental: as §4

[12] = molecular target: T1, human Aurora A (amino acids 123–401) (Homo sapiens, UniProt O14965); assay: In vitro inhibition of Aurora A kinase activity (Kinase-Glo Plus Luminescent Kinase assay, ATP consumption); type: biochemical; details: mean of 2–3 independent determinations ± SD; >100 = inhibition < 50% at 100 nM
T1 construct: N-terminal truncated human Aurora A (amino acids 123–401); GST; made in house; host or cells: Sf9 insect cells
T1 sequence (O14965 123-401): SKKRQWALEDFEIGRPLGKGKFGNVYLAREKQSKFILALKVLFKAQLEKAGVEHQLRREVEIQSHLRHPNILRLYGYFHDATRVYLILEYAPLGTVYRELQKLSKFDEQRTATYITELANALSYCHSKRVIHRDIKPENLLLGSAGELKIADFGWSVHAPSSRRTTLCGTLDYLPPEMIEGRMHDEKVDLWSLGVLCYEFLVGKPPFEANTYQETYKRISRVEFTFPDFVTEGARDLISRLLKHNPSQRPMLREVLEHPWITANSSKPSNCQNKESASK
Experimental: The inhibitory potency of the newly synthesized small molecules against Aurora A was first measured in ATP consumption assays using purified Aurora A protein.
The efficacy of the compounds as inhibitors of Aurora A kinase was assessed in vitro using the Kinase-Glo Plus Luminescent Kinase assay (Promega, USA), as described previously.[45] […] The resulting mixture was incubated at 25 °C for 20 min. A 70 μL aliquot of the mixture was transferred to a black microtiter plate.

[13] = test system: cleaved PARP-1 (cPARP-1) in NCI-H446 xenograft tumors; assay: In vivo target validation: cleaved PARP-1 in tumors (western blot); set-up: species or system mice; details: single oral dose 100 mg/kg, after 24 h
Experimental: (§5) Apoptosis was assessed using levels of PARP-1, one of several known cellular substrates of caspases; cleavage of PARP-1 by caspases is considered a hallmark of apoptosis.[44]
(§6) The efficacy of a compound in reducing the MYC protein level and in inducing cell apoptosis was assessed using an NCI-H446 xenograft tumorigenicity mouse model. Six-week-old male athymic nu/nu nude mice (BioLASCO, Taiwan) were inoculated subcutaneously with 1 × 10^6 NCI-H446 cells resuspended in saline mixed with 50% Matrigel matrix (Corning, USA). […] Tumors were harvested after 2, 4, 8, and 24 h of drug treatment, respectively. Half of the tumor was cryopreserved and then subjected to western analysis; the other half was fixed in 10% formalin and then embedded in paraffin. For immunohistochemistry, tissue paraffin sections were deparaffinized using xylene and ethanol. After rehydration, antigen retrieval was achieved by placing the slides in 100 °C citrate buffer, pH 6.0 for 1 h. Endogenous peroxides were quenched by 0.5% H2O2 for 10 min. Slides were blocked with 3% BSA for 30 min and then incubated with a rabbit anticleaved Caspase-3 antibody (Cell signaling, 9661S) at room temperature for 1.5 h. After three washes with 1× PBS, a goat antirabbit HRP-polymer (Biocare Medical, USA) was added, followed by development of the color using 3,3′-diaminobenzidine substrate chromogen (Biocare Medical, USA). […]

[14] = test system: pH3(Ser10) in NCI-H446 xenograft tumors; assay: In vivo target validation: phosphorylation of histone H3 at Ser10 in tumors (western blot); set-up: species or system mice; details: single oral dose 100 mg/kg, 2 h after drug administration
Experimental: (§7) Tumors were harvested after 2, 4, 8, and 24 h of the treatment, respectively (Figure 4A). Whole tumor tissues were collected for western blotting and immunohistochemistry (IHC) analyses. […] The western blot result of phosphorylated Aurora A/B/C was not provided due to the inability of detecting the signal in the tumor tissues.
as §6, with “h.” for “h. After three washes with 1× PBS, a goat antirabbit HRP-polymer (Biocare Medical, USA) was added, followed by development of the color using 3,3′-diaminobenzidine substrate chromogen (Biocare Medical, USA).”

[15] = test system: cleaved Caspase-3 (CASP3) in NCI-H446 xenograft tumors; assay: In vivo target validation: cleaved Caspase-3 immunohistochemistry; set-up: species or system mice; details: single oral dose 100 mg/kg
Experimental: as §5, §6

[16] = test system: cMYC in NCI-H446 xenograft tumors; assay: In vivo target validation: cMYC protein level in tumors (western blot); set-up: species or system mice; details: single oral dose 100 mg/kg
Experimental: as §7
The efficacy of a compound in reducing the MYC protein level and in inducing cell apoptosis was assessed using an NCI-H446 xenograft tumorigenicity mouse model. Six-week-old male athymic nu/nu nude mice (BioLASCO, Taiwan) were inoculated subcutaneously with 1 × 10^6 NCI-H446 cells resuspended in saline mixed with 50% Matrigel matrix (Corning, USA). […] Tumors were harvested after 2, 4, 8, and 24 h of drug treatment, respectively. Half of the tumor was cryopreserved and then subjected to western analysis; the other half was fixed in 10% formalin and then embedded in paraffin. For immunohistochemistry, tissue paraffin sections were deparaffinized using xylene and ethanol. After rehydration, antigen retrieval was achieved by placing the slides in 100 °C citrate buffer, pH 6.0 for 1 h. Endogenous peroxides were quenched by 0.5% H2O2 for 10 min. Slides were blocked with 3% BSA for 30 min and then incubated with a rabbit anticleaved Caspase-3 antibody (Cell signaling, 9661S) at room temperature for 1.5 h. After three washes with 1× PBS, a goat antirabbit HRP-polymer (Biocare Medical, USA) was added, followed by development of the color using 3,3′-diaminobenzidine substrate chromogen (Biocare Medical, USA). The nucleus was stained with hematoxylin.

[17] = PO, 5-on-2-off, after end of dosing

IC50 [2]: < 200 nM | IC50 [5]: 105 nM | IC50 [6]: 51.7 nM | IC50 ([7]; Homo sapiens, NCI-H146, 72 h): 1180 nM | IC50 ([7]; 72 h): > 1000 nM | IC50 [8]: 3.36 nM | IC50 [9]: 27.1 nM | IC50 [10]: 120 nM | IC50 [12]: 38.6 ± 7 nM
Structure (SMILES): CCN1CCN(c2cc(Nc3cc(C)[nH]n3)nc(N[C@H]3CCN(C(=O)c4ccc(Cl)cc4F)C3)n2)CC1 [Compound 13, (S)-(4-Chloro-2-fluorophenyl) (3-((4-(4-ethylpiperazin-1-yl)-6-((5-methyl-1H-pyrazol-3-yl)amino)pyrimidin-2-yl)amino)pyrrolidin-1-yl)methanone]
reduction of MYCN level ([1]; 1.0 μM): > 50% | SK-N-BE(2) MYCN, relative protein level ([1]; 24 h): 0.487 ± 0.066 | effect on MYCN protein level in SK-N-BE(2) ([1]; various concentrations, 24 h): dose-dependent loss | body weight change ([3]; IV 50 mg/kg, 5-on-2-off, during the treatment): less than 5% | reduction of cMYC level ([4]; 1.0 μM): > 50% | NCI-H82 cMYC, relative protein level ([4]; 24 h): 0.475 ± 0.023 | effect on cMYC protein level in NCI-H82 ([4]; various concentrations, 24 h): dose-dependent loss | tumor growth inhibition ([11]; IV 50 mg/kg, 5-on-2-off dosing schedule, two weeks, nude mice): > 90%

IC50 [12]: 64.9 ± 13.7 nM
Structure (SMILES): CCN1CCN(c2cc(Nc3cc(C)[nH]n3)nc(N[C@H]3CCN(C(=O)c4ccc(Cl)c(F)c4F)C3)n2)CC1 [Compound 17, (S)-(4-Chloro-2,3-difluorophenyl) (3-((4-(4-ethylpiperazin-1-yl)-6-((5-methyl-1H-pyrazol-3-yl)amino)pyrimidin-2-yl)amino)pyrrolidin-1-yl)methanone]
SK-N-BE(2) MYCN, relative protein level ([1]; 24 h): 0.541 ± 0.068 | NCI-H82 cMYC, relative protein level ([4]; 24 h): 0.744 ± 0.124

Structure (SMILES): CCOC(=O)n1nc(C)cc1Nc1cc(N2CCN(CC)CC2)nc(N[C@H]2CCN(C(=O)c3ccc(Cl)cc3F)C2)n1 [Compound 22, Ethyl (S)-5-((2-((1-(4-chloro-2-fluorobenzoyl)pyrrolidin-3-yl)amino)-6-(4-ethylpiperazin-1-yl)pyrimidin-4-yl)amino)-3-methyl-1H-pyrazole-1-carboxylate]
anticancer activity in NCI-H446 xenograft tumor model [11]: dose-dependent anticancer activity

Structure (SMILES): CCC(=O)n1nc(C)cc1Nc1cc(N2CCN(CC)CC2)nc(N[C@H]2CCN(C(=O)c3ccc(Cl)cc3F)C2)n1 [Compound 25, (S)-1-(5-((2-((1-(4-Chloro-2-fluorobenzoyl)pyrrolidin-3-yl)amino)-6-(4-ethylpiperazin-1-yl)pyrimidin-4-yl)amino)-3-methyl-1H-pyrazol-1-yl)propan-1-one]
cleaved PARP-1 (cPARP-1) levels in tumor tissues [13]: significantly upregulated | reduction of phosphorylation level of histone H3 at Ser10 [14]: > 90% | body weight change ([3]; PO 100 mg/kg, 4-week dosing period): less than 5% | shrinkage of tumors with volume >750 mm^3 ([11]; PO 100 mg/kg, 5-on-2-off, 2 weeks): great potency to shrink tumors | tumor volume regression ([11]; PO 100 mg/kg, 5-on-2-off, four consecutive weeks): > 80% | xenografted tumors remained stable after the last dosage [11, 17]: 44 days | anticancer activity in NCI-H446 xenograft tumor model [11]: dose-dependent anticancer activity | incidence of cleaved Caspase-3 (CASP3), IHC [15]: greatly increased | cMYC protein level relative to vehicle-treated tumors ([16]; 24 h after dosing): around 37% | relative cMYC protein level in tumors ([16]; 24 h post-treatment, vehicle 1.0 ± 0.230): 0.374 ± 0.204

Structure (SMILES): COc1cc(Nc2ncc3c(n2)-c2ccc(Cl)cc2C(c2c(F)cccc2OC)=NC3)ccc1C(=O)O [MLN8237, reference compound]
cleaved PARP-1 (cPARP-1) levels in tumor tissues [13]: significantly upregulated | reduction of phosphorylation level of histone H3 at Ser10 [14]: > 90% | tumors started to grow, day after the last dosage [11, 17]: 22 days | effect on the cMYC level in tumors ([16]; 2–24 h): marginal effect
